The experiment has as its target Mu-type opioid receptor (Homo sapiens, UniProt P35372). Nature of the experiment: Detection of MOR cAMP Agonist Activity: The experiment was performed using a cAMP detection kit from Cisbio (Cisbio #62AM4PEJ).

Mu-type opioid receptor, sequence (P35372 whole entry): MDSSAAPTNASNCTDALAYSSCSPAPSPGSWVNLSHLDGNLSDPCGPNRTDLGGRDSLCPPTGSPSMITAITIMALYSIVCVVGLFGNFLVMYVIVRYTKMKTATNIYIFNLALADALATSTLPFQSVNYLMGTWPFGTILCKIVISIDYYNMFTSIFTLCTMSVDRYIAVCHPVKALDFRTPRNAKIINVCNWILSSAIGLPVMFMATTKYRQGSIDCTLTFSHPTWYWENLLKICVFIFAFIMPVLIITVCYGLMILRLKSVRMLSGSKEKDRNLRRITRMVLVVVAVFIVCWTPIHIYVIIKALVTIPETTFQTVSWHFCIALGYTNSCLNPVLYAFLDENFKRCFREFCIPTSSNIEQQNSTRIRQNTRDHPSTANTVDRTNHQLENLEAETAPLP

In the case of `c1ccc([C@]2(CCNCc3scc4c3CCC4)CCO[C@]3(CCOC3)C2)nc1`, the EC50 was 0.47 nM. In the case of `Fc1ccc([C@]2(CCNCc3scc4c3CCC4)CCO[C@]3(CCOC3)C2)nc1`, the EC50 came out at 0.1 nM.

The compound `c1ccc([C@]2(CCN[C@H]3CCc4ccccc43)CCO[C@]3(CCOC3)C2)nc1` came in with an EC50 of 4 nM. Compared with the last compound, the EC50 is about 40-fold higher. With `Cc1cccc(CNCC[C@@]2(c3ccc(F)cn3)CCO[C@]3(CCOC3)C2)c1`, a half-maximal response (EC50) required 0.1 nM. Then `c1ccc([C@]2(CCNCc3cc4c(s3)CCC4)CCOC3(CCCC3)C2)nc1`, with 0.9 nM.

A word on the EC50: it is the concentration that produces a half-maximal response.

The values are drawn from ChEMBL document CHEMBL5728734, “2,6-dioxaspiro [4,5] decane derivatives and preparation method therefor and pharmaceutical applications thereof” (2021).
